Experimental data reported in ChEMBL document CHEMBL1201862, “PubChem BioAssay data set” (2004).
Calls of active or inactive are those of the source.

Columns and labels:
Vero = assay: cells; type: functional, cell-based; conditions: Chlorocebus sabaeus
[1] = target: Delta-type opioid receptor (Homo sapiens, UniProt P41143); assay: Counterscreen for agonists of heterodimerization of the mu 1 (OPRM1) and delta 1 (OPRD1) opioid receptors: Luminescence-based cell-based high throughput dose response assay to identify agonists of OPRD1 homodimerization. [Related pubchem assays (depositor defined):AID504326, AID504355, AID504692, AID504904, AID504905]; type: functional
Chain of Delta-type opioid receptor (P41143 whole entry): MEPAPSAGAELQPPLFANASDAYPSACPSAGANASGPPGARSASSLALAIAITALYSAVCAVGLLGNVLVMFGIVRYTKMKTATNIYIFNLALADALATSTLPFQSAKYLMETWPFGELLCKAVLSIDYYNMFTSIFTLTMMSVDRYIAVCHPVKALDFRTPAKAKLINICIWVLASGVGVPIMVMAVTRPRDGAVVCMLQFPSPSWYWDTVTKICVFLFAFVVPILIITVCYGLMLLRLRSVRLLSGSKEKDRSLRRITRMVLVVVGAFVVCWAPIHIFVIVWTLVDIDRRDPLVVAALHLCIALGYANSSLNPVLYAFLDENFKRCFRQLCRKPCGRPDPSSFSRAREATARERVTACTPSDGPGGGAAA

Mu-type opioid receptor = Mu-type opioid receptor (Homo sapiens, UniProt P35372); assay: Counterscreen for agonists of heterodimerization of the mu 1 (OPRM1) and delta 1 (OPRD1) opioid receptors: Luminescence-based cell-based high throughput dose response assay to identify agonists of OPRM1 homodimerization.; type: functional;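 also: U2OS cells expressing OPRM1 and beta-arrestin as split beta-galactosidase partners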
Chain of Mu-type opioid receptor (P35372 whole entry): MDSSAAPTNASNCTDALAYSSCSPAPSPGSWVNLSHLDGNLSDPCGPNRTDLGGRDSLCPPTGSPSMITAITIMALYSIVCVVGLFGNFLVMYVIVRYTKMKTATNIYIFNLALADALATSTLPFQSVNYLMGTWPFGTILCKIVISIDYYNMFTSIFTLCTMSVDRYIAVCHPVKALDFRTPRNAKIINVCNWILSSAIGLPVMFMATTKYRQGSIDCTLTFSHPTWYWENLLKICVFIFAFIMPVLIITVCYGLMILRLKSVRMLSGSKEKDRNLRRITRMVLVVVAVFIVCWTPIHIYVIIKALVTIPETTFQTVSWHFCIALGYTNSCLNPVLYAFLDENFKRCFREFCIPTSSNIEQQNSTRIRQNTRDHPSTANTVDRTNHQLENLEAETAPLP

[2] = target: 5-hydroxytryptamine receptor 5A (Homo sapiens, UniProt P47898); assay: Counterscreen for agonists of OPRM1-OPRD1 heterodimerization: luminescence-based cell-based high throughput dose response assay to identify agonists of 5-hydroxytryptamine (serotonin) 5A receptor (HTR5A). [Related pubchem assays (depositor defined):AID504326, AID504355, AID504692, AID504904, AID504905]; type: functional
Chain of 5-hydroxytryptamine receptor 5A (P47898 whole entry): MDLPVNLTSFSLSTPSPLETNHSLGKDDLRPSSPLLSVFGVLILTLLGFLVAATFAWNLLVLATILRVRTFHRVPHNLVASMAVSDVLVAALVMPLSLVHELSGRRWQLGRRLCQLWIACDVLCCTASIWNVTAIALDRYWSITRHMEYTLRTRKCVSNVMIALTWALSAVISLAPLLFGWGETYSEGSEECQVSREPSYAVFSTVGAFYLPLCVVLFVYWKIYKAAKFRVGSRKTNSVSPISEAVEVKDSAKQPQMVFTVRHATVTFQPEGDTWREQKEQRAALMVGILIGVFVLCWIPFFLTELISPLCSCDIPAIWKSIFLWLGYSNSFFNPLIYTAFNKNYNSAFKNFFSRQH

INS1 = assay: beta-cell survival under cytokine stress – INS-1E, ATP luminescence, dry powder, dose response (AID 488844); type: functional, cell-based; conditions: Rattus norvegicus
[3] = target: T1, Dual specificity protein phosphatase 3 (Homo sapiens, UniProt P51452); assay: VHR1 phosphatase inhibitors, primary screen, biochemical, absorbance, uHTS (AID 1654)
T1 sequence (P51452 whole entry): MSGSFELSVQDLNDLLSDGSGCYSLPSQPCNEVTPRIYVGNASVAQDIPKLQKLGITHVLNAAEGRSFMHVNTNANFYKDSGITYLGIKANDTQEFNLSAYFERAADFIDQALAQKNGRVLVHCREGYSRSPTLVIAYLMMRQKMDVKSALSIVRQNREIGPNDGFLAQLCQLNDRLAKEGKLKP

[4] = target: T1, Dual specificity protein phosphatase 3; assay: VHR1 phosphatase inhibitors, biochemical (AID 1878)
[5] = target: T2, Dual specificity protein phosphatase 6 (Rattus norvegicus, UniProt Q64346); assay: inhibition of rat DUSP6 enzyme activity – biochemical, in vitro, primary screen (AID 425)
T2 sequence (Q64346 whole entry): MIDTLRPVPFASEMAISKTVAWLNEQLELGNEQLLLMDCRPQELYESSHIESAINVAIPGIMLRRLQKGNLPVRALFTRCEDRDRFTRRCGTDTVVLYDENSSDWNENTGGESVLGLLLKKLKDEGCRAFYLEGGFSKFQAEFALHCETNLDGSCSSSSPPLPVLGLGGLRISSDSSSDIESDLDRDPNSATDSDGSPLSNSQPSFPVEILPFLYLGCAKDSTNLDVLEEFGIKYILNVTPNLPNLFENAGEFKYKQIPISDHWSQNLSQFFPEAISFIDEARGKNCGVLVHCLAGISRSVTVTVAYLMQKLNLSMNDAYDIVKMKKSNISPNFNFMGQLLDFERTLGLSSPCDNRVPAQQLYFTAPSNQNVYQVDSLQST

[6] = target: Intestinal-type alkaline phosphatase (Mus musculus, UniProt P24822); assay: PubChem AID 488785; type: functional
Chain of Intestinal-type alkaline phosphatase (Mus musculus, UniProt P24822) (P24822 whole entry): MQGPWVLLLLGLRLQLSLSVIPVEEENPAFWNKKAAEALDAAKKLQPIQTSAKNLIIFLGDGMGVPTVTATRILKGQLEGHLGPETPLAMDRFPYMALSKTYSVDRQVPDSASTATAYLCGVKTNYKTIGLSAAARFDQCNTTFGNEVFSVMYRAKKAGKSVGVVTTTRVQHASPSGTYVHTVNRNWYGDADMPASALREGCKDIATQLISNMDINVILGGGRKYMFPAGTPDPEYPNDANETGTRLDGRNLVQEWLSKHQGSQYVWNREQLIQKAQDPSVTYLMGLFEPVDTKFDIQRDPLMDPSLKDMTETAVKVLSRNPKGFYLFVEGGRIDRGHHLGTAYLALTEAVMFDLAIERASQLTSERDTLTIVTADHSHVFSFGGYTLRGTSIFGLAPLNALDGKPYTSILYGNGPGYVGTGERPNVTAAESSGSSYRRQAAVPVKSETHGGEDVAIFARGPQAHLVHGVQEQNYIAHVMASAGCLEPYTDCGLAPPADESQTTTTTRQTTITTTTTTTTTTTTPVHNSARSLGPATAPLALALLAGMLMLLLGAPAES

[7] = target: T3, Alkaline phosphatase, tissue-nonspecific isozyme (Homo sapiens, UniProt P05186); assay: TNAP enzyme inhibition by screening hits, dose response, selectivity assay for mouse IAP inhibitor project, biochemical, human TNAP, uHTS hits (AID 488906); type: functional
T3 sequence (P05186 whole entry): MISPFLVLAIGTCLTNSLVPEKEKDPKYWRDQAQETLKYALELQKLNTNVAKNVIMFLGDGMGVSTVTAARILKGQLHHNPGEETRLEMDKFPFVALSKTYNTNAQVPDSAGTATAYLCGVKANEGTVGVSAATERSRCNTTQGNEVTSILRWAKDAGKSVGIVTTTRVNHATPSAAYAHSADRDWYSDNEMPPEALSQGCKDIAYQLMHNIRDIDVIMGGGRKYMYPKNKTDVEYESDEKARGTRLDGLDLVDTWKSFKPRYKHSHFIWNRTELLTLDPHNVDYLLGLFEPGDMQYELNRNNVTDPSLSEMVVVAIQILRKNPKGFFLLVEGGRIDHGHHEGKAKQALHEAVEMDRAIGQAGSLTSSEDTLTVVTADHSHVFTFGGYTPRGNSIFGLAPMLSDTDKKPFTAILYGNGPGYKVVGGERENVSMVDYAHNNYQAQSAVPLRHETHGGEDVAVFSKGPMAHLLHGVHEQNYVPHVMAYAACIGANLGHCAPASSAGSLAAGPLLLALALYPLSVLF

[8] = target: Intestinal-type alkaline phosphatase (Homo sapiens, UniProt P09923); assay: inhibition of human intestinal alkaline phosphatase – biochemical, dose response (AID 488876); type: functional
Chain of Intestinal-type alkaline phosphatase (Homo sapiens, UniProt P09923) (P09923 whole entry): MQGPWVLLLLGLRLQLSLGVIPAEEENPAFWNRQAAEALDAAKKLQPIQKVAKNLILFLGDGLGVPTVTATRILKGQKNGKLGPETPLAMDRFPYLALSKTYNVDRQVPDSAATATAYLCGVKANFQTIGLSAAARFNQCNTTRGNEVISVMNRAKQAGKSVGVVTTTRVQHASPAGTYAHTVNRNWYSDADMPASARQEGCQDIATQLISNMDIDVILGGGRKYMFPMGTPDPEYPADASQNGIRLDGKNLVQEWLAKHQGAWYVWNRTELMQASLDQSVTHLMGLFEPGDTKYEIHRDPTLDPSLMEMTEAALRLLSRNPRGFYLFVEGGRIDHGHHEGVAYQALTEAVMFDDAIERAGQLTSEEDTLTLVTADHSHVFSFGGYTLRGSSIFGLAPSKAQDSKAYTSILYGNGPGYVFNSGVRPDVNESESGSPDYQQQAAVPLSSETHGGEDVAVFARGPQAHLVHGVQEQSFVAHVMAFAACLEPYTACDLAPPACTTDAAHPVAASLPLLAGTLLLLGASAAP

[9] = target: DNA (cytosine-5)-methyltransferase 1 (Homo sapiens, UniProt P26358); assay: inhibition of DNA methylation by DNMT1 – biochemical, fluorescent molecular beacon, confirmation (AID 602386); type: functional
Chain of DNA (cytosine-5)-methyltransferase 1 (P26358 whole entry): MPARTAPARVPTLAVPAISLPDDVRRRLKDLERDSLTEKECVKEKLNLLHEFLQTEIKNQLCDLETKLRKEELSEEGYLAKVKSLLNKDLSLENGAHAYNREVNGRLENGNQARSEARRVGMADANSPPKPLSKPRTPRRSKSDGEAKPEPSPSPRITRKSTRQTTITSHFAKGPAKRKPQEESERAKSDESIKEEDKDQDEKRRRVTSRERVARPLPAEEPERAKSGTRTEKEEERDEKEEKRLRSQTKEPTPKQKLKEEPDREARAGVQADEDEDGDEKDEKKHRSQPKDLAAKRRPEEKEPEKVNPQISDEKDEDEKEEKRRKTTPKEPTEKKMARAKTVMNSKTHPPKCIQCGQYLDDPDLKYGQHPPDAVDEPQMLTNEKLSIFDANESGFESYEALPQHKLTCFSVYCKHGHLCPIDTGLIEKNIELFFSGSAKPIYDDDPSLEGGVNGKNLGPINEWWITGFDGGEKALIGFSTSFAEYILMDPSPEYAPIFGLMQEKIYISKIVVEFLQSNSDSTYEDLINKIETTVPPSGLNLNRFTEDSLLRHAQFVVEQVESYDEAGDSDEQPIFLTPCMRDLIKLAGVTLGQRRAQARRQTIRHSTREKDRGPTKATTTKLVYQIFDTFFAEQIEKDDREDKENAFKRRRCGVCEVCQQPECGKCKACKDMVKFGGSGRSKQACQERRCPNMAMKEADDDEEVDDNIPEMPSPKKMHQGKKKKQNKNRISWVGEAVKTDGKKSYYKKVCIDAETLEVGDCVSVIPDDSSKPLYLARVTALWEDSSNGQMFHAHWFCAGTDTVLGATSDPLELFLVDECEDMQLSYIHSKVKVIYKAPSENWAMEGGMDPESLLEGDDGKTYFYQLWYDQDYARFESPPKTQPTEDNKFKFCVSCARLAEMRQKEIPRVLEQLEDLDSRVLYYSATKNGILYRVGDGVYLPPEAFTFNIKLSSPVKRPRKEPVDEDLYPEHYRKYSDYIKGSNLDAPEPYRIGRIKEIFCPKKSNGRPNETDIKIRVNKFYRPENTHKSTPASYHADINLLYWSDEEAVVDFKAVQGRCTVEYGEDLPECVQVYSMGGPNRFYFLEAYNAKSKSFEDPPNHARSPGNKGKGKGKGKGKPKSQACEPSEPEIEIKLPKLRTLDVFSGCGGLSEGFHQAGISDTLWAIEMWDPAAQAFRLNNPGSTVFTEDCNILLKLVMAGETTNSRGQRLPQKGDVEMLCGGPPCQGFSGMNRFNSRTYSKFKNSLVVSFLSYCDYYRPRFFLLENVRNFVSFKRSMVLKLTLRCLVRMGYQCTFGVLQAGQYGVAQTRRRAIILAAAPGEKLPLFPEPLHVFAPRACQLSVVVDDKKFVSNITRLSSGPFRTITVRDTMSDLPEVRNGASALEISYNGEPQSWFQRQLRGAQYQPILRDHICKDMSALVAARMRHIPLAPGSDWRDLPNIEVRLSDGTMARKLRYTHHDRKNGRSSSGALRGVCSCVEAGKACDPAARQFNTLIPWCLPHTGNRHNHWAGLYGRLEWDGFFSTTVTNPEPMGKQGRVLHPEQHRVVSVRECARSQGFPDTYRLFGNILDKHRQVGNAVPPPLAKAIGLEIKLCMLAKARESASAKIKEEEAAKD

[10] = target: T4, Small ubiquitin-related modifier 2 (Homo sapiens, UniProt P61956); assay: disruption of SUMO2 interaction with SIM peptide – biochemical, fluorescence polarization, uHTS hits, selectivity assay for SUMO1 interaction inhibitor project, dose response (AID 624385); type: functional; conditions: read-out: IC50_Mean
T4 sequence (P61956 whole entry): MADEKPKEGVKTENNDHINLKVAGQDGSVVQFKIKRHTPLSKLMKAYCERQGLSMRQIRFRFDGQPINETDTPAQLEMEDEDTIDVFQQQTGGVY

[11] = target: T5, Small ubiquitin-related modifier 1 (Homo sapiens, UniProt P63165); assay: SUMO1 protein interaction blockers, potency – biochemical, fluorescence polarization, uHTS hits, dose response (AID 624382); type: functional; conditions: read-out: IC50_Mean
T5 sequence (P63165 whole entry): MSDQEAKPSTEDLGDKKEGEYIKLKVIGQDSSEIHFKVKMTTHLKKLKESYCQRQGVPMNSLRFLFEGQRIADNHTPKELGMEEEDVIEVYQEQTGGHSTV

[12] = target: T4, Small ubiquitin-related modifier 2; assay: SUMO2 binding disruption by SUMO1 hits – biochemical, FRET, human SUMO2, uHTS hits, selectivity assay for SUMO1 interaction inhibitor project, dose response (AID 624384); type: functional; conditions: read-out: IC50_Mean
[13] = target: T5, Small ubiquitin-related modifier 1; assay: SUMO1 protein-protein binding blockers, potency – biochemical, FRET, dose response (AID 624383); type: functional; conditions: read-out: IC50_Mean
Albumin = Albumin (Bos taurus, UniProt P02769); assay: Counterscreen for inhibitors of T-cell receptor (TCR)-CD3 interaction: Fluorescence-based biochemical high throughput dose response assay to identify inhibitors of T-cell receptor (TCR)-CD3 interaction using a TAMRA-labeled BSA probe.; type: functional
Chain of Albumin (P02769 whole entry): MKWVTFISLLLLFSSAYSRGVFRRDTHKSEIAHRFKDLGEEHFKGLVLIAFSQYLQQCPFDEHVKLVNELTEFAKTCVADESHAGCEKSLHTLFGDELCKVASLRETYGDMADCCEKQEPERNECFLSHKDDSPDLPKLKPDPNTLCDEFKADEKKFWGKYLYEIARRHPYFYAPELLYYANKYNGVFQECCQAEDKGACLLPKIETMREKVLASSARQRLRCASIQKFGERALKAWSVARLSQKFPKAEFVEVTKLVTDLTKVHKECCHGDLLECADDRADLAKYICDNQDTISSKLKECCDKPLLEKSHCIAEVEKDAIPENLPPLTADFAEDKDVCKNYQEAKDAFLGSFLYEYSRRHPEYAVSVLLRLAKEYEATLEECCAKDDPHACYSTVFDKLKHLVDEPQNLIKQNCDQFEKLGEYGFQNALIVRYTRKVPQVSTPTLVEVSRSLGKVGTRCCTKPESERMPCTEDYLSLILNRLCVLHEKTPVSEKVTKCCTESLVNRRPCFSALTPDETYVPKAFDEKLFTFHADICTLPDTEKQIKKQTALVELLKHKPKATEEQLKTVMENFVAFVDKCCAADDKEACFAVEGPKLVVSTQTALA

Caspase-6 = target: T6, Caspase-6 (Homo sapiens, UniProt P55212); assay: inhibition of CASP6 peptide cleavage – biochemical, VEID-R110 fluorescence, cherry-pick, dose response (AID 720632)
T6 sequence (P55212 whole entry): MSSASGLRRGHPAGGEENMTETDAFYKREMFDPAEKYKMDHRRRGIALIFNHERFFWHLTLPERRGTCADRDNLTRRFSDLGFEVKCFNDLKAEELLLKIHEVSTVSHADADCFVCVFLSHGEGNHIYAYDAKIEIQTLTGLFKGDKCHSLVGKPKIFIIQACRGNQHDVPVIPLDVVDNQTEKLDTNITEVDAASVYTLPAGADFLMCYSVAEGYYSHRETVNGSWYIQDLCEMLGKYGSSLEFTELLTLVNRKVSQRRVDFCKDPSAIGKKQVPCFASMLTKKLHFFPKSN

[14] = viability loss in THP-1 monocytes – THP-1 cells, cytotoxicity control for Vif-APOBEC3G degradation inhibitor project, dose response (AID 1117359); type: functional; conditions: THP-1

N#C/C(=C\c1c(Oc2ccccc2Cl)nc2ccccn2c1=O)C(=O)NC1CCS(=O)(=O)C1 (configuration not stated)
active: IC50 (Vero) > 25 µM

CCc1ccc(NC(=O)N(CCCN2CCOCC2)Cc2cccs2)cc1
inactive: EC50 [1] > 92.5 µM | EC50 (Mu-type opioid receptor) > 92.5 µM | EC50 [2] > 92.5 µM

CC(=O)Nc1ccc(S(=O)(=O)/N=C2\C(=O)c3ccccc3C(O)=C2N2CCN(Cc3ccccc3)CC2)cc1
inactive: EC50 [1] > 92.5 µM | EC50 (Mu-type opioid receptor) > 92.5 µM | EC50 [2] > 92.5 µM

COc1ccc(S(=O)(=O)N(C)C[C@H]2Oc3c(NC(=O)Nc4cccc5ccccc45)cccc3C(=O)N([C@H](C)CO)C[C@H]2C)cc1
active: AC50 (INS1) 41.5 µM

O=C(N/N=C/c1cn(Cc2cccc(F)c2)c2ccccc12)c1cc(O)cc(O)c1
inactive: IC50 [7] > 100 µM | IC50 [8] > 100 µM | IC50 [10] 50.6 µM | IC50 (Albumin) > 94.1 µM
active: IC50 [3] 4.76 µM | IC50 [4] 2.08 µM | IC50 [5] 74.4 µM | IC50 [6] 2.7 µM | IC50 [9] 2.39 µM | IC50 [11] 10.3 µM | IC50 [12] 2.49 µM | IC50 [13] 6.82 µM | AC50 (Caspase-6) 0.461 µM | CC50 [14] > 40 µM
